Experimental data from ChEMBL document CHEMBL1201862, “PubChem BioAssay data set” (2004).
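Growth conditions: 96-well plates. Treatment: test compound, 48 hours, 5 concentrations. Analysis: linear interpolation between bracketing concentrations; unreached endpoints set to highest concentration. The concentration for 50% growth inhibition is given as GI50.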 Activity calls are given as the source filed them. Rule as the data show it: active = GI50 up to about 1.1 µM and inactive = higher.

Key:
Assay in all cases: inhibition of tumour cell growth, NCI panel, 48 h
COLO 205 = tested on: COLO 205
SK-MEL-28 = tested on: SK-MEL-28
MDA-MB-231 = tested on: MDA-MB-231
MCF7 = tested on: MCF7
HOP-62 = tested on: HOP-62
Malme-3M = tested on: Malme-3M
U-251 = tested on: U-251
T47D = tested on: T47D
SF-539 = tested on: SF-539
MOLT-4 = tested on: MOLT-4
SNB-75 = tested on: SNB-75
RXF 393 = tested on: RXF 393
OVCAR-5 = tested on: OVCAR-5
SK-MEL-5 = tested on: SK-MEL-5
LOX IMVI = tested on: LOX IMVI
NCI-H460 = tested on: NCI-H460
DU-145 = tested on: DU-145
SF-295 = tested on: SF-295
A498 = tested on: A498
SF-268 = tested on: SF-268
HCT-15 = tested on: HCT-15
HL-60 = tested on: HL-60
K562 = tested on: K562
CAKI-1 = tested on: CAKI-1
NCI-H23 = tested on: NCI-H23
BT-549 = tested on: BT-549
OVCAR-4 = tested on: OVCAR-4
MDA-MB-435 = tested on: MDA-MB-435
UACC-257 = tested on: UACC-257
SN12C = tested on: SN12C
MDA-N = tested on: MDA-N
SW-620 = tested on: SW-620
786-0 = tested on: 786-0
OVCAR-8 = tested on: OVCAR-8
A549 = tested on: A549
SR = tested on: SR
HOP-92 = tested on: HOP-92
ACHN = tested on: ACHN
RPMI-8226 = tested on: RPMI-8226
Hs-578T = tested on: Hs-578T
NCI/ADR-RES = tested on: NCI/ADR-RES
HCC 2998 = tested on: HCC 2998
EKVX = tested on: EKVX
SK-OV-3 = tested on: SK-OV-3
HT-29 = tested on: HT-29
NCI-H226 = tested on: NCI-H226
M14 = tested on: M14
UACC-62 = tested on: UACC-62
SK-MEL-2 = tested on: SK-MEL-2
SNB-19 = tested on: SNB-19
KM12 = tested on: KM12
HCT-116 = tested on: HCT-116
PC-3 = tested on: PC-3
TK-10 = tested on: TK-10
OVCAR-3 = tested on: OVCAR-3
NCI-H522 = tested on: NCI-H522
UO-31 = tested on: UO-31
CCRF-CEM = tested on: CCRF-CEM

With `O=C(c1ccc(Cl)cc1)N(Cc1cccnc1)C(=S)N(Cc1cccnc1)C(=O)c1ccc(Cl)cc1` as the molecule, how does the GI50 (COLO 205) read?
Its GI50 is 20.5 µM (inactive).

And the GI50 (SK-MEL-28)?
Its GI50 is 37.8 µM (inactive).

What about the GI50 (MDA-MB-231) of the same molecule?
The GI50 was 26.5 µM (inactive).

And the GI50 (MCF7)?
Its GI50 is 29.7 µM (inactive).

And the GI50 (HOP-62)?
Its GI50 is 50.7 µM (inactive).

And the GI50 (Malme-3M)?
The GI50 was 51.2 µM (inactive).

And the GI50 (U-251)?
The GI50 was 22.7 µM (inactive).

And the GI50 (T47D)?
Its GI50 is 57.4 µM (inactive).

And the GI50 (SF-539)?
Its GI50 is 23 µM (inactive).

And the GI50 (MOLT-4)?
The GI50 was 16.1 µM (inactive).

And the GI50 (SNB-75)?
The GI50 was 37.1 µM (inactive).

What about the GI50 (RXF 393) of the same molecule?
The GI50 was 43.6 µM (inactive).

What about the GI50 (OVCAR-5) of the same molecule?
The GI50 was 36.7 µM (inactive).

And the GI50 (SK-MEL-5)?
The GI50 was 27.5 µM (inactive).

And the GI50 (LOX IMVI)?
Its GI50 is 22 µM (inactive).

What about the GI50 (NCI-H460) of the same molecule?
Its GI50 is 44.2 µM (inactive).

And the GI50 (DU-145)?
The GI50 was 31.1 µM (inactive).

And the GI50 (SF-295)?
Its GI50 is 43.3 µM (inactive).

What about the GI50 (A498) of the same molecule?
The GI50 was 30.5 µM (inactive).

What about the GI50 (SF-268) of the same molecule?
The GI50 was 28.3 µM (inactive).

And the GI50 (HCT-15)?
The GI50 was 33.9 µM.

And the GI50 (HL-60)?
The GI50 was 33.2 µM (inactive).

And the GI50 (K562)?
Its GI50 is 22.9 µM (inactive).

What about the GI50 (CAKI-1) of the same molecule?
Its GI50 is 42.4 µM (inactive).

What about the GI50 (NCI-H23) of the same molecule?
The GI50 was 36.1 µM (inactive).

And the GI50 (BT-549)?
Its GI50 is 23.7 µM (inactive).

What about the GI50 (OVCAR-4) of the same molecule?
The GI50 was 23.6 µM (inactive).

What about the GI50 (MDA-MB-435) of the same molecule?
The GI50 was 40.2 µM (inactive).

And the GI50 (UACC-257)?
Its GI50 is 33.6 µM (inactive).

And the GI50 (SN12C)?
The GI50 was 18.6 µM (inactive).

And the GI50 (MDA-N)?
The GI50 was 22.2 µM (inactive).

What about the GI50 (SW-620) of the same molecule?
Its GI50 is 40.5 µM (inactive).

What about the GI50 (786-0) of the same molecule?
The GI50 was 21.1 µM (inactive).

And the GI50 (OVCAR-8)?
Its GI50 is 29.6 µM (inactive).

What about the GI50 (A549) of the same molecule?
Its GI50 is 99.5 µM (inactive).

What about the GI50 (SR) of the same molecule?
The GI50 was 50.4 µM (inactive).

And the GI50 (HOP-92)?
The GI50 was 34 µM (inactive).

What about the GI50 (ACHN) of the same molecule?
Its GI50 is 36.1 µM (inactive).

What about the GI50 (RPMI-8226) of the same molecule?
Its GI50 is 13.2 µM (inactive).

What about the GI50 (Hs-578T) of the same molecule?
Its GI50 is 48.4 µM (inactive).

What about the GI50 (NCI/ADR-RES) of the same molecule?
The GI50 was 31.2 µM (inactive).

And the GI50 (HCC 2998)?
The GI50 was 25.9 µM (inactive).

And the GI50 (EKVX)?
Its GI50 is 50.8 µM (inactive).

And the GI50 (SK-OV-3)?
The GI50 was > 100 µM (inactive).

And the GI50 (HT-29)?
Its GI50 is 26.1 µM (inactive).

What about the GI50 (NCI-H226) of the same molecule?
The GI50 was 43.5 µM (inactive).

And the GI50 (M14)?
Its GI50 is 22.7 µM (inactive).

What about the GI50 (UACC-62) of the same molecule?
Its GI50 is 24.3 µM (inactive).

And the GI50 (SK-MEL-2)?
The GI50 was 23 µM (inactive).

What about the GI50 (SNB-19) of the same molecule?
The GI50 was 41.5 µM (inactive).

And the GI50 (KM12)?
The GI50 was 35.4 µM (inactive).

And the GI50 (HCT-116)?
The GI50 was 27.1 µM (inactive).

What about the GI50 (PC-3) of the same molecule?
The GI50 was 30.3 µM (inactive).

What about the GI50 (TK-10) of the same molecule?
Its GI50 is 53 µM (inactive).

And the GI50 (OVCAR-3)?
Its GI50 is 34 µM (inactive).

And the GI50 (NCI-H522)?
The GI50 was 24.2 µM (inactive).

What about the GI50 (UO-31) of the same molecule?
The GI50 was 34.2 µM (inactive).

What about the GI50 (CCRF-CEM) of the same molecule?
The GI50 was 50 µM (inactive).
